Assays:
Test in all cases: relative viability (nuclei count vs DMSO), 5 days (fraction); higher = more cells survive
[1] = compound: Nc1nc2[nH]cc(CCc3ccc(C(=O)N[C@@H](CCC(=O)O)C(=O)O)cc3)c2c(=O)[nH]1 [Pemetrexed] + Cc1nc(NC(=O)N2CCC[C@H]2C(N)=O)sc1-c1ccnc(C(C)(C)C(F)(F)F)c1 [Alpelisib] (partner 2 µM)
In short: (§1)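 Lung cancer cell lines were pin-tool dosed in 1536-well plates on the day after seeding, with either a lone drug or a fixed anchor-drug dose plus five library-drug doses (not always all listed) in √10 steps. Nuclei were counted on 4× images after 5 days. Relative viability is the ratio of treated-well to vehicle-well nuclei counts, with each value a median of duplicate plates.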

[2] = compound: Nc1nc2[nH]cc(CCc3ccc(C(=O)N[C@@H](CCC(=O)O)C(=O)O)cc3)c2c(=O)[nH]1 [Pemetrexed] + CC1(C)CCC(c2ccc(Cl)cc2)=C(CN2CCN(c3ccc(C(=O)NS(=O)(=O)c4ccc(N[C@H](CCN5CCOCC5)CSc5ccccc5)c(S(=O)(=O)C(F)(F)F)c4)cc3)CC2)C1 [Navitoclax] (partner 0.5 µM)
In short: as §1

[3] = compound: CC[C@H](Nc1ncnc2[nH]cnc12)c1nc2cccc(F)c2c(=O)n1-c1ccccc1 [Idelalisib] + O=C(CCCCCCC(=O)Nc1ccccc1)NO [Vorinostat] (partner 1 µM)
In short: as §1

[4] = compound: CC[C@H](Nc1ncnc2[nH]cnc12)c1nc2cccc(F)c2c(=O)n1-c1ccccc1 [Idelalisib] + C[C@]1(O)C[C@@H](c2nc(-c3ccc4ccc(-c5ccccc5)nc4c3)c3c(N)nccn32)C1 [Linsitinib] (partner 1 µM)
In short: as §1

Cell Line	relative viability ([1]; first compound 0.002 µM)	relative viability ([1]; first compound 0.006325 µM)	relative viability ([1]; first compound 0.02 µM)	relative viability ([1]; first compound 0.06325 µM)	relative viability ([1]; first compound 0.2 µM)	relative viability ([2]; first compound 0.002 µM)	relative viability ([2]; first compound 0.006325 µM)	relative viability ([2]; first compound 0.02 µM)	relative viability ([2]; first compound 0.06325 µM)	relative viability ([2]; first compound 0.2 µM)	relative viability ([3]; first compound 0.04 µM)	relative viability ([3]; first compound 0.1265 µM)	relative viability ([3]; first compound 0.4 µM)	relative viability ([3]; first compound 1.265 µM)	relative viability ([3]; first compound 4 µM)	relative viability ([4]; first compound 0.04 µM)	relative viability ([4]; first compound 0.1265 µM)	relative viability ([4]; first compound 0.4 µM)	relative viability ([4]; first compound 1.265 µM)	relative viability ([4]; first compound 4 µM)
SW 1573	0.826	0.741	0.723	0.733	0.76	1.11	0.927	0.987	0.889	0.902	0.907	0.629	0.7	0.556	0.49	0.781	0.792	0.728	0.625	0.558
COR-L23	0.803	0.719	0.72	0.259	0.176	0.991	0.964	1.04	0.323	0.194	0.535	0.396	0.396	0.535	0.421	1	1.04	0.745	0.822	0.864
NCI-H1755	0.828	0.935	0.923	0.926	0.862	0.94	0.918	1.03	0.992	0.898	0.884	0.748	0.751	0.634	0.723	1.01	0.959	0.947	0.907	0.786
LOU-NH91	0.711	0.757	0.745	0.632	0.529	0.629	0.727	0.708	0.431	0.416	0.998	0.899	0.794	0.726	0.91	0.942	0.88	0.904	0.683	0.864
EMC-BAC-2	0.795	0.676	0.801	0.738	0.693	1.14	1.09	1.21	1.2	1.09	0.639	0.42	0.419	0.496	0.633	0.868	0.8	0.757	0.818	0.748
NCI-H2023	0.573	0.521	0.558	0.524	0.289	0.972	1.02	0.991	0.942	0.459	0.909	0.702	0.469	0.375	0.682	0.662	0.556	0.515	0.547	0.273

— the supplement of paper PMC10307832
